The CheMixHub ionic liquid set
± gives the uncertainty stated by the source.

Assay: xn = mol fraction of the nth substance listed

CCCCCCCCCCCCCCCC[N+](C)(C)C.[Br-] + CCO + O
298.2 K, 101.3 kPa
Settings	electrical conductivity [S/m]
x1 = 1.26e-06, x2 = 0.05064	0.00062 ± 0.0002
x1 = 3.09e-06, x2 = 0.05064	0.00117 ± 0.0002
x1 = 5.13e-06, x2 = 0.05064	0.00178 ± 0.0002
x1 = 7.19e-06, x2 = 0.05064	0.00236 ± 0.0002
x1 = 9.2e-06, x2 = 0.05064	0.00294 ± 0.0002
x1 = 1.12e-05, x2 = 0.05064	0.0035 ± 0.0002
x1 = 1.326e-05, x2 = 0.05064	0.00406 ± 0.0002
x1 = 1.526e-05, x2 = 0.05064	0.00458 ± 0.0002
x1 = 1.726e-05, x2 = 0.05064	0.00501 ± 0.0002
x1 = 1.932e-05, x2 = 0.05064	0.0055 ± 0.0002
x1 = 2.135e-05, x2 = 0.05064	0.00592 ± 0.0002
x1 = 2.333e-05, x2 = 0.05064	0.00629 ± 0.0002
x1 = 2.537e-05, x2 = 0.05064	0.00663 ± 0.0002
x1 = 2.735e-05, x2 = 0.05064	0.00698 ± 0.0002
x1 = 2.922e-05, x2 = 0.05064	0.00728 ± 0.0002
x1 = 3.097e-05, x2 = 0.05064	0.00754 ± 0.0002
x1 = 3.328e-05, x2 = 0.05064	0.00788 ± 0.0002

CCCCCCCCCCCCOS(=O)(=O)[O-].[Na+] + CCO + O
298 K, 100 kPa, frequency 0.001 MHz
Settings	electrical conductivity [S/m]
x2 = 0.02563, x3 = 0.9741	0.0809 ± 0.00082
x2 = 0.06861, x3 = 0.9309	0.103 ± 0.0011
x2 = 0.06862, x3 = 0.9311	0.0828 ± 0.00085

CCCCCCCCn1cc[n+](C)c1.[Cl-] + CCO + O
298.15 K, 101 kPa
Settings	viscosity [mPa·s]
x2 = 0.0467, x3 = 0.9348	2.514 ± 0.02
x2 = 0.0558, x3 = 0.9143	3.908 ± 0.026
x2 = 0.0679, x3 = 0.8854	7.008 ± 0.044
x2 = 0.0766, x3 = 0.8576	10.5 ± 0.06
x2 = 0.0826, x3 = 0.91	2.007 ± 0.023
x2 = 0.0929, x3 = 0.8165	13.64 ± 0.08
x2 = 0.0962, x3 = 0.8862	2.748 ± 0.029
x2 = 0.0984, x3 = 0.1869	2330 ± 160
x2 = 0.1218, x3 = 0.7443	18.9 ± 0.12
x2 = 0.1329, x3 = 0.8601	2.881 ± 0.031
x2 = 0.1594, x3 = 0.6721	21.9 ± 0.16
x2 = 0.1807, x3 = 0.7375	7.695 ± 0.06
x2 = 0.1867, x3 = 0.7875	3.207 ± 0.028
x2 = 0.1968, x3 = 0.1665	855 ± 44
x2 = 0.2008, x3 = 0.4721	68.1 ± 1.1
x2 = 0.2008, x3 = 0.7927	2.822 ± 0.027
x2 = 0.2235, x3 = 0.6582	10.37 ± 0.11
x2 = 0.2254, x3 = 0.7596	2.603 ± 0.031
x2 = 0.2604, x3 = 0.7162	3.164 ± 0.025
x2 = 0.2624, x3 = 0.3089	119.1 ± 2.3
x2 = 0.2733, x3 = 0.7208	2.591 ± 0.022
x2 = 0.2777, x3 = 0.4267	41.41 ± 0.47
x2 = 0.2833, x3 = 0.1486	402 ± 15
x2 = 0.2958, x3 = 0.669	3.56 ± 0.038
x2 = 0.3057, x3 = 0.6808	2.662 ± 0.034
x2 = 0.3069, x3 = 0.6239	5.009 ± 0.088
x2 = 0.3218, x3 = 0.5748	7.072 ± 0.058
x2 = 0.3263, x3 = 0.5386	9.47 ± 0.073
x2 = 0.3335, x3 = 0.6189	3.791 ± 0.037
x2 = 0.3386, x3 = 0.6405	2.729 ± 0.027
x2 = 0.3599, x3 = 0.268	58.73 ± 0.64
x2 = 0.3651, x3 = 0.6297	2.282 ± 0.025
x2 = 0.366, x3 = 0.5069	8.153 ± 0.08
x2 = 0.3714, x3 = 0.5658	4.285 ± 0.04
x2 = 0.3806, x3 = 0.3659	24.18 ± 0.22
x2 = 0.3954, x3 = 0.5743	2.873 ± 0.036
x2 = 0.4166, x3 = 0.5418	3.353 ± 0.038
x2 = 0.4363, x3 = 0.4778	4.956 ± 0.042
x2 = 0.4432, x3 = 0.2332	33.75 ± 0.35
x2 = 0.4437, x3 = 0.5387	2.553 ± 0.027
x2 = 0.4443, x3 = 0.5002	3.63 ± 0.038
x2 = 0.4617, x3 = 0.4303	5.846 ± 0.094
x2 = 0.5079, x3 = 0.2907	11.59 ± 0.13
x2 = 0.532, x3 = 0.3966	3.823 ± 0.033
x2 = 0.5377, x3 = 0.4533	1.472 ± 0.032
x2 = 0.544, x3 = 0.4234	2.522 ± 0.033
x2 = 0.5558, x3 = 0.186	16.16 ± 0.46
x2 = 0.5841, x3 = 0.3951	2.156 ± 0.023
x2 = 0.5878, x3 = 0.3295	3.918 ± 0.034
x2 = 0.6004, x3 = 0.2361	7.378 ± 0.085
x2 = 0.6077, x3 = 0.3891	1.864 ± 0.021
x2 = 0.6374, x3 = 0.3073	2.912 ± 0.032
x2 = 0.6743, x3 = 0.2932	2.278 ± 0.02
x2 = 0.6985, x3 = 0.0625	11.08 ± 0.09
x2 = 0.6991, x3 = 0.1777	4.71 ± 0.039
x2 = 0.7005, x3 = 0.2845	1.923 ± 0.019
x2 = 0.7599, x3 = 0.1919	2.375 ± 0.02
x2 = 0.7937, x3 = 0.0428	5.553 ± 0.042
x2 = 0.7997, x3 = 0.1184	2.964 ± 0.022
x2 = 0.847, x3 = 0.1454	1.508 ± 0.015

CC[n+]1ccn(C)c1.N#C[S-] + CCOS(=O)(=O)[O-].CC[n+]1ccn(C)c1
100 kPa
Settings	electrical conductivity [S/m]	viscosity [mPa·s]
298.15 K, x1 = 0.67	1.16 ± 0.047	43.5 ± 2
308.15 K, x1 = 0.199	0.688 ± 0.028	61.2 ± 2.6
313.15 K, x1 = 0.429	1.19 ± 0.048	43.1 ± 1.9
318.15 K, x1 = 0.9505	3.6 ± 0.14	15.57 ± 0.73
323.15 K, x1 = 0.899	3.66 ± 0.15	13.3 ± 0.62
328.15 K, x1 = 0.429	–	22.05 ± 0.96
333.15 K, x1 = 0.32	–	22.93 ± 0.98
338.15 K, x1 = 0.899	–	9.45 ± 0.44
343.15 K, x1 = 0.32	–	17.43 ± 0.75
343.15 K, x1 = 0.429	–	14.75 ± 0.64
348.15 K, x1 = 0.9505	–	7.21 ± 0.34
